According to patent publication US9453026B2, “ACC inhibitors and uses thereof” (Gilead Apollo, Inc., priority 2011, dated 2016):

Biological target: ACC2 (Homo sapiens, UniProt O00763)
Experiment: In vitro ACC2 inhibition assay (ADP-Glo)
Assay type: biochemical
Settings: read-out: ACC2
Procedure, shortened: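 Enzyme (human ACC1 or ACC2) and compound, serially diluted 1:3 over 11 points from a 600 uM DMSO stock, were preincubated 15 min before substrate addition.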

Chain of ACC2 (O00763 whole entry, species assumed): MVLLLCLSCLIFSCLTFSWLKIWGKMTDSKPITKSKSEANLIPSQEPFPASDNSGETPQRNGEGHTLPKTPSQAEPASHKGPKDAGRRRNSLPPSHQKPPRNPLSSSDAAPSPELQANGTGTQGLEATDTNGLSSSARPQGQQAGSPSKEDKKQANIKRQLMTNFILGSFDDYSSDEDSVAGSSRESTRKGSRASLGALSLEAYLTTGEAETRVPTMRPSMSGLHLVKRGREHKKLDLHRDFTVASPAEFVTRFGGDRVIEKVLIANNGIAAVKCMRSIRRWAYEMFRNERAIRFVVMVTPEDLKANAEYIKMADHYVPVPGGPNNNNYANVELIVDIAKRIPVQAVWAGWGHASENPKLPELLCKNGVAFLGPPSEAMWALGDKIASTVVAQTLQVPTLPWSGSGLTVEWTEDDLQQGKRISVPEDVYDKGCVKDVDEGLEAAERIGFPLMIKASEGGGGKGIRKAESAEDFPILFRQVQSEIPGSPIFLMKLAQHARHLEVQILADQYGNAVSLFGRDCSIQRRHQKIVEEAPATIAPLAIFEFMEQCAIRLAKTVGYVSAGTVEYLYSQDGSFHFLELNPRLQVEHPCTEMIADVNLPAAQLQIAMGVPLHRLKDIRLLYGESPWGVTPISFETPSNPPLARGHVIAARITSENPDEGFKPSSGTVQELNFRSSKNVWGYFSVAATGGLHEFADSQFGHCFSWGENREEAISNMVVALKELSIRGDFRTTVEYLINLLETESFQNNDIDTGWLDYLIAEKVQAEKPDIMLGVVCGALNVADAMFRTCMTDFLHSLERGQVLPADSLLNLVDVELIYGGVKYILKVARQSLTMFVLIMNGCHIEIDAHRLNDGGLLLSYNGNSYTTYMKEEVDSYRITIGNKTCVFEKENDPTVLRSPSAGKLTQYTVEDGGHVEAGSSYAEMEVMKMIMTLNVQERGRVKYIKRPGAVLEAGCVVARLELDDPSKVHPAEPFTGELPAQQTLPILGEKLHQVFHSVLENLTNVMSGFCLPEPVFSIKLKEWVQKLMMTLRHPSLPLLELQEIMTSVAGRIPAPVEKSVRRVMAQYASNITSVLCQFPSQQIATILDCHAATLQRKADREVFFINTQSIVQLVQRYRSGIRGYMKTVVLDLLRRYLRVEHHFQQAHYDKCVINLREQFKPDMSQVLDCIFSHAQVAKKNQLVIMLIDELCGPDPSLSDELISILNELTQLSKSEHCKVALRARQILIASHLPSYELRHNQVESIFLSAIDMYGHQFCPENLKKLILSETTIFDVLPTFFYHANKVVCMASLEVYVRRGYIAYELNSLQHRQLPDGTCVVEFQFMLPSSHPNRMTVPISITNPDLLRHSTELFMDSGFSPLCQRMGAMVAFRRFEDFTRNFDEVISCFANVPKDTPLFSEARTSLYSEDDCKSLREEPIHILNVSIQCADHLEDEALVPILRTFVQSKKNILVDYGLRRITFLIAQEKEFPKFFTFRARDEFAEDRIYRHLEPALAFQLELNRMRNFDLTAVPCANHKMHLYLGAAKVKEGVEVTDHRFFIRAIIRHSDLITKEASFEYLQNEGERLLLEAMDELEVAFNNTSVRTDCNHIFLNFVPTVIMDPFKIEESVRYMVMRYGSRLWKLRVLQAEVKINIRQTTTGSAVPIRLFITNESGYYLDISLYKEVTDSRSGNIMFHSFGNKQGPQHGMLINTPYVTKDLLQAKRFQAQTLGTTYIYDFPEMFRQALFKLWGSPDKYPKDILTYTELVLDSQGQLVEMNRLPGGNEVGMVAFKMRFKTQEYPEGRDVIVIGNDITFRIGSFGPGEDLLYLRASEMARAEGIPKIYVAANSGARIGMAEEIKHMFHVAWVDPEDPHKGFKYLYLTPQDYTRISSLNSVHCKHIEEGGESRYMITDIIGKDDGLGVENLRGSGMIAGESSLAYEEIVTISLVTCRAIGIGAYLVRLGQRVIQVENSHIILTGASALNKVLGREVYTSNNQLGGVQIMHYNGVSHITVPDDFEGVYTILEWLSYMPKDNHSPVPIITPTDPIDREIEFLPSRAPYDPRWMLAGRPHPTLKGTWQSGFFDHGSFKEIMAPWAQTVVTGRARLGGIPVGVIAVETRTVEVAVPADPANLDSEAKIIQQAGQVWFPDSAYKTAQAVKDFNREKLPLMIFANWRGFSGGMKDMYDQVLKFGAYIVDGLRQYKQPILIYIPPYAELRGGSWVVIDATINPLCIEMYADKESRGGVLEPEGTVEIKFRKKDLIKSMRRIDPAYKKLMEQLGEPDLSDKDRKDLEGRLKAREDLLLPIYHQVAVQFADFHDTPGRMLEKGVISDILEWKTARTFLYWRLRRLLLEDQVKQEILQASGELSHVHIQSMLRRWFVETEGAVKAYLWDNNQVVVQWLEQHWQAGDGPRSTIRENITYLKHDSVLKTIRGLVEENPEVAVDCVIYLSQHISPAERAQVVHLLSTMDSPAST

Structure (SMILES) | IC50 [µM]
Cc1c(C(=O)OCCO)sc2c1c(=O)n(CC(=O)O)c(=O)n2CCc1ccccc1 [I-83, 2-[6-[(2-hydroxyethoxy)carbonyl]-5-methyl-2,4-dioxo-1-(2-phenylethyl)-1H,2H,3H,4H-thieno[2,3-d]pyrimidin-3-yl]acetic acid] | < 5
CCOC(=O)c1sc2c(c1C)c(=O)n(CC)c(=O)n2CCc1ccccc1 [I-7, ethyl 3-ethyl-5-methyl-2,4-dioxo-1-(2-phenylethyl)-1H,2H,3H,4H-thieno[2,3-d]pyrimidine-6-carboxylate] | > 50
CCOC(=O)c1sc2c(c1C)c(=O)n(CS(C)(=O)=O)c(=O)n2CCc1ccccc1 [I-72] | > 50
CCOC(=O)c1sc2c(c1C(F)(F)F)c(=O)n(CC(=O)O)c(=O)n2CCc1ccccc1 [I-94, 2-[6-(ethoxycarbonyl)-2,4-dioxo-1-(2-phenylethyl)-5-(trifluoromethyl)-1H,2H,3H,4H-thieno[2,3-d]pyrimidin-3-yl]acetic acid] | < 5
CCOC(=O)c1sc2c(c1C)c(=O)n(C(C)C(N)=O)c(=O)n2CCc1ccccc1 (stereo not drawn) [I-69, ethyl 3-(1-carbamoylethyl)-5-methyl-2,4-dioxo-1-(2-phenylethyl)-1H,2H,3H,4H-thieno[2,3-d]pyrimidine-6-carboxylate] | < 5
Cc1c(-c2nccs2)sc2c1c(=O)n(C(C)(C)C(=O)O)c(=O)n2C[C@H](OC(C)C)c1ccccc1 [I-141, 2-methyl-2-[5-methyl-2,4-dioxo-1-[(2R)-2-phenyl-2-(propan-2-yloxy)ethyl]-6-(1,3-thiazol-2-yl)-1H,2H,3H,4H-thieno[2,3-d]pyrimidin-3-yl]propanoic acid] | < 5
CCNC(=O)c1sc2c(c1C)c(=O)n(CCO)c(=O)n2CCc1ccccc1 [I-18] | > 50
Cc1c(-c2ncco2)sc2c1c(=O)n(C(C)(C)C(=O)O)c(=O)n2C[C@H](OCC1CCCO1)c1ccccc1 (stereo partly drawn) [I-146, 2-methyl-2-[5-methyl-6-(1,3-oxazol-2-yl)-2,4-dioxo-1-[(2R)-2-(oxolan-2-ylmethoxy)-2-phenylethyl]-1H,2H,3H,4H-thieno[2,3-d]pyrimidin-3-yl]propanoic acid] | < 1
Cc1c(-n2cccn2)sc2c1c(=O)n(C(C)(C)C(=O)O)c(=O)n2CCc1ccccc1 [I-116, 2-methyl-2-[5-methyl-2,4-dioxo-1-(2-phenylethyl)-6-(1H-pyrazol-1-yl)-1H,2H,3H,4H-thieno[2,3-d]pyrimidin-3-yl]propanoic acid] | < 5
CCOC(=O)c1sc2c(c1C)c(=O)n(CC(=O)O)c(=O)n2CC(=O)c1ccccc1 [I-73, 2-[6-(ethoxycarbonyl)-5-methyl-2,4-dioxo-1-(2-oxo-2-phenylethyl)-1H,2H,3H,4H-thieno[2,3-d]pyrimidin-3-yl]acetic acid] | 20 to 50
CCOC(=O)c1cc2c(=O)n(CC(=O)O)c(=O)n(CCc3ccccc3)c2s1 [I-91, 2-[6-(ethoxycarbonyl)-2,4-dioxo-1-(2-phenylethyl)-1H,2H,3H,4H-thieno[2,3-d]pyrimidin-3-yl]acetic acid] | 5 to 20
CCOC(=O)c1sc2c(c1C)c(=O)n(C(C)(C)C(=O)O)c(=O)n2CCc1ccccc1O [I-99, 2-[6-(ethoxycarbonyl)-1-[2-(2-hydroxyphenyl)ethyl]-5-methyl-2,4-dioxo-1H,2H,3H,4H-thieno[2,3-d]pyrimidin-3-yl]-2-methylpropanoic acid] | < 5
CCCn1c(=O)c2c(C)c(C(=O)OCC)sc2n(CCc2ccccc2)c1=O [I-9, ethyl 5-methyl-2,4-dioxo-1-(2-phenylethyl)-3-propyl-1H,2H,3H,4H-thieno[2,3-d]pyrimidine-6-carboxylate] | > 50
CCOC(=O)c1sc2c(c1C)c(=O)n(CCO)c(=O)n2Cc1ccc2ccn(C)c2c1 [I-64] | > 50
O=C(O)Cn1c(=O)c2ccsc2n(CCc2ccccc2)c1=O [I-65, 2-[2,4-dioxo-1-(2-phenylethyl)-1H,2H,3H,4H-thieno[2,3-d]pyrimidin-3-yl]acetic acid] | > 50
CCOC(=O)c1sc2c(c1C)c(=O)n(CCO)c(=O)n2Cc1cccc2ccccc12 [I-15] | > 50
CCCOC(=O)c1sc2c(c1C)c(=O)n(CCO)c(=O)n2CCc1ccccc1 [I-41, propyl 3-(2-hydroxyethyl)-5-methyl-2,4-dioxo-1-(2-phenylethyl)-1H,2H,3H,4H-thieno[2,3-d]pyrimidine-6-carboxylate] | > 50
Cc1c(-c2ncco2)sc2c1c(=O)n(CC#N)c(=O)n2C[C@H](OC(C)C)c1ccccc1 [I-142, 2-(1-((R)-2-Isopropoxy-2-phenylethyl)-5-methyl-6-(oxazol-2-yl)-2,4-dioxo-1,2-dihydrothieno[2,3-d]pyrimidin-3(4H)-yl)acetonitrile] | < 1
CCOC(=O)c1sc2c(c1C)c(=O)n(CCO)c(=O)n2CC [I-11, ethyl 1-ethyl-3-(2-hydroxyethyl)-5-methyl-2,4-dioxo-1H,2H,3H,4H-thieno[2,3-d]pyrimidine-6-carboxylate] | > 50
COCc1sc2c(c1C)c(=O)n(CCO)c(=O)n2CCc1ccccc1 [I-39, 3-(2-hydroxyethyl)-6-(methoxymethyl)-5-methyl-1-(2-phenylethyl)-1H,2H,3H,4H-thieno[2,3-d]pyrimidine-2,4-dione] | 20 to 50

Next, values leading:

IC50 [µM] | Structure (SMILES)
< 5 | Cc1c(-c2ncco2)sc2c1c(=O)n(C(C)(C)C(=O)O)c(=O)n2C[C@@H](OC1CCOCC1)c1ccccc1Cl [I-251, 2-[1-[(2S)-2-(2-chlorophenyl)-2-(oxan-4-yloxy)ethyl]-5-methyl-6-(1,3-oxazol-2-yl)-2,4-dioxo-1H,2H,3H,4H-thieno[2,3-d]pyrimidin-3-yl]-2-methylpropanoic acid]
< 1 | Cc1c(-c2ncco2)sc2c1c(=O)n(C(C)(C)C(=O)O)c(=O)n2C[C@H](O[C@H]1CC[C@@](C)(O)CC1)c1ccccc1 [I-168, 2-(1-((R)-2-(((1s,4S)-4-hydroxy-4-methylcyclohexyl)oxy)-2-phenylethyl)-5-methyl-6-(oxazol-2-yl)-2,4-doxo-1,2-dihydrothieno[2,3-d]pyrimidin-3(4H)-yl)-2-methylpropanoic acid]
< 0.1 | Cc1c(-c2ncco2)sc2c1c(=O)n(C(C)(C)C(=O)O)c(=O)n2C[C@H](OCCO)c1ccccc1 [I-169, 2-[1-[(2R)-2-(2-hydroxyethoxy)-2-phenylethyl]-5-methyl-6-(1,3-oxazol-2-yl)-2,4-dioxo-1H,2H,3H,4H-thieno[2,3-d]pyrimidin-3-yl]-2-methylpropanoic acid]
20 to 50 | Cc1c(-n2cncn2)sc2c1c(=O)n(C(C)(C)C(=O)O)c(=O)n2C[C@H](OC(C)C)c1ccccc1 [I-157, 2-methyl-2-[5-methyl-2,4-dioxo-1-[(2R)-2-phenyl-2-(propan-2-yloxy)ethyl]-6-(1H-1,2,4-triazol-1-yl)-1H,2H,3H,4H-thieno[2,3-d]pyrimidin-3-yl]propanoic acid]
< 1 | Cc1c(-c2ncco2)sc2c1c(=O)n(C(C)(C)C(=O)O)c(=O)n2C[C@H](Oc1ccc(F)cc1)c1ccccc1 [I-149, (R)-2-(1-(2-(4-fluorophenoxy)-2-phenylethyl)-5-methyl-6-(oxazol-2-yl)-2,4-dioxo-1,2-dihydrothieno[2,3-d]pyrimidin-3(4H)-yl)-2-methylpropanoic acid]
< 1 | Cc1c(-c2ncco2)sc2c1c(=O)n(C(C)(C)C(=O)O)c(=O)n2C[C@H](O[C@H]1CCC[C@H](O)C1)c1ccccc1 [I-172, 2-(1-((R)-2-(((1S,3S)-3-hydroxycyclohexyl)oxy)-2-phenylethyl)-5-methyl-6-(oxazol-2-yl)-2,4-dioxo-1,2-dihydrothieno[2,3-d]pyrimidin-3(4H)-yl)-2-methylpropanoic acid]
< 1 | Cc1c(-c2ncco2)sc2c1c(=O)n(C(C)(C)C(=O)O)c(=O)n2C[C@H](O[C@H](C)CO)c1ccccc1 [I-184, 2-[1-[(2R)-2-[[(2R)-1-hydroxypropan-2-yl]oxy]-2-phenylethyl]-5-methyl-6-(1,3-oxazol-2-yl)-2,4-dioxo-1H,2H,3H,4H-thieno[2,3-d]pyrimidin-3-yl]-2-methylpropanoic acid]
< 1 | Cc1c(-c2ncco2)sc2c1c(=O)n(C(C)(C)C(=O)O)c(=O)n2C[C@H](OC1CCC(F)(F)CC1)c1ccccc1 [I-155, 2-[1-[(2R)-2-[(4,4-difluorocyclohexyl)oxy]-2-phenylethyl]-5-methyl-6-(1,3-oxazol-2-yl)-2,4-dioxo-1H,2H,3H,4H-thieno[2,3-d]pyrimidin-3-yl]-2-methylpropanoic acid]
< 5 | Cc1c(-c2ncco2)sc2c1c(=O)n(C(C)(C)C(=O)O)c(=O)n2CCOC(C)C [I-234, 2-methyl-2-[5-methyl-6-(1,3-oxazol-2-yl)-2,4-dioxo-1-[2-(propan-2-yloxy)ethyl]-1H,2H,3H,4H-thieno[2,3-d]pyrimidin-3-yl]propanoic acid]
< 5 | Cc1c(-c2ncco2)sc2c1c(=O)n(C(C)(C)C(=O)O)c(=O)n2CCOC1CCOCC1 [I-233, 2-methyl-2-[5-methyl-1-[2-(oxan-4-yloxy)ethyl]-6-(1,3-oxazol-2-yl)-2,4-dioxo-1H,2H,3H,4H-thieno[2,3-d]pyrimidin-3-yl]propanoic acid]
< 1 | Cc1c(-c2ncco2)sc2c1c(=O)n(C(C)(C)C(=O)O)c(=O)n2C[C@H](O[C@H]1CC[C@H](N)CC1)c1ccccc1 [I-166, 2-(1-((R)-2-(((1r,4R)-4-aminocyclohexyl)oxy)-2-phenylethyl)-5-methyl-6-(oxazol-2-yl)-2,4-dioxo-1,2-dihydrothieno[2,3-d]pyrimidin-3(4H)-yl)-2-methylpropanoic acid]
< 1 | Cc1c(-c2ncco2)sc2c1c(=O)n(C(C)(C)C(=O)O)c(=O)n2C[C@H](O[C@@H]1CCOC1)c1ccccc1 [I-186, 2-methyl-2-[5-methyl-6-(1,3-oxazol-2-yl)-2,4-dioxo-1-[(2R)-2-[(3R)-oxolan-3-yloxy]-2-phenylethyl]-1H,2H,3H,4H-thieno[2,3-d]pyrimidin-3-yl]propanoic acid]
< 1 | Cc1c(-c2ncco2)sc2c1c(=O)n(C(C)(C)C(=O)O)c(=O)n2C[C@H](O[C@@H](C)CO)c1ccccc1 [I-185, 2-[1-[(2R)-2-[[(2S)-1-hydroxypropan-2-yl]oxy]-2-phenylethyl]-5-methyl-6-(1,3-oxazol-2-yl)-2,4-dioxo-1H,2H,3H,4H-thieno[2,3-d]pyrimidin-3-yl]-2-methylpropanoic acid]
